Several values for one entry are separate records, joined by “and”; a condition that tells them apart may be missing. Identical values can stand only once. Toxic doses and inconclusive results are not listed. No stated cut-off is given here; in the data, active means T/C of 150% or more; inactive means T/C below 125%.
Tested on: L1210 leukemia ip in BDF1 mice, survival T/C
Assay: NCI In Vivo Anticancer Drug Screen. Data for tumor model L1210 Leukemia (intraperitoneal) in B6D2F1 (BDF1) mice
Conditions: endpoint: mean survival time, higher = longer survival
Method in brief: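 Antitumor effect is assessed in tumor-bearing animals. Survival in the compound arm is compared with a vehicle-dosed control arm and expressed as their quotient.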

[1] = dose: 12.5 mg/kg/injection, schedule: Q01DX009 (ip), vehicle: saline with Tween-80
[2] = dose: 25.0 mg/kg/injection, schedule: Q01DX009 (ip), vehicle: saline with Tween-80
[3] = dose: 50.0 mg/kg/injection, schedule: Q01DX009 (ip), vehicle: saline with Tween-80
[4] = dose: 100.0 mg/kg/injection, schedule: Q04DX003 (ip), vehicle: saline with Tween-80
[5] = dose: 100.0 mg/kg/injection, schedule: Q01DX009 (ip), vehicle: Klucel (hydroxypropylcellulose) (HPC)
[6] = dose: 100.0 mg/kg/injection, schedule: Q04DX003 (ip), vehicle: Klucel (hydroxypropylcellulose) (HPC)
[7] = dose: 200.0 mg/kg/injection, schedule: Q01DX009 (ip), vehicle: Klucel (hydroxypropylcellulose) (HPC)
[8] = dose: 200.0 mg/kg/injection, schedule: Q04DX003 (ip), vehicle: Klucel (hydroxypropylcellulose) (HPC)
[9] = dose: 400.0 mg/kg/injection, schedule: Q04DX003 (ip), vehicle: Klucel (hydroxypropylcellulose) (HPC)
[10] = dose: 100.0 mg/kg/injection, schedule: Q01DX001 (ip), vehicle: saline
[11] = dose: 200.0 mg/kg/injection, schedule: Q01DX001 (ip), vehicle: saline
[12] = dose: 400.0 mg/kg/injection, schedule: Q01DX001 (ip), vehicle: saline

Measured: T/C

COC1C(c2ccccc2)NC(=O)C(Br)(C#N)C1c1ccccc1 (configuration not stated)
inactive: [1] 86 % of control | [2] 86 % of control | [3] 86 % of control

C[C@]12CCC(=O)C=C1CC[C@H]1[C@@H]3CC[C@](O)(C(=O)CO)[C@@]3(C)CC(=O)[C@@]12SC(N)=O
inactive: dose: 100.0 mg/kg/injection, schedule: Q01DX001 (ip), vehicle: steriod suspending solution 92 % of control | dose: 200.0 mg/kg/injection, schedule: Q01DX001 (ip), vehicle: steriod suspending solution 92 % of control | dose: 400.0 mg/kg/injection, schedule: Q01DX001 (ip), vehicle: steriod suspending solution 104 % of control

Cc1ccc(S(=O)(=O)OCC(OS(=O)(=O)c2ccc(C)cc2)C2OCOC(COS(=O)(=O)c3ccc(C)cc3)C2OS(=O)(=O)c2ccc(C)cc2)cc1 (configuration not stated)
inactive: [4] 94 % of control | dose: 200.0 mg/kg/injection, schedule: Q04DX003 (ip), vehicle: saline with Tween-80 87 % of control | dose: 400.0 mg/kg/injection, schedule: Q04DX003 (ip), vehicle: saline with Tween-80 100 % of control

CC(C(=O)c1ccc(Cl)cc1)C(O)(C(F)(F)F)C(F)(F)F (configuration not stated)
inactive: dose: 50.0 mg/kg/injection, schedule: Q01DX009 (ip), vehicle: Klucel (hydroxypropylcellulose) (HPC) 104 % of control | [5] 104 % of control | [6] 103 % of control | [7] 108 % of control | [8] 101 % of control | [9] 103 % of control

Oc1ccc(CN2CCCCC2)c2cccnc12
inactive: dose: 75.0 mg/kg/injection, schedule: Q01DX001 (ip), vehicle: carboxymethylcellulose (CMC) 106 % of control | dose: 150.0 mg/kg/injection, schedule: Q01DX001 (ip), vehicle: carboxymethylcellulose (CMC) 106 % of control

O=C(COc1ccc(Cl)c(Cl)c1)Nc1ccc[n+](Cc2ccc(S(=O)(=O)F)c(Cl)c2)c1
inactive: [6] 98 % of control | [8] 93 % of control | [9] 97 % of control

CCCCCCCCCCCC(=O)[O][Sn]([CH2]CCC)([CH2]CCC)[O]C(=O)CCCCCCCCCCC
inactive: dose: 12.5 mg/kg/injection, schedule: Q04DX003 (ip), vehicle: saline with Tween-80 108 % of control

CCN(C(C)C)C(C)C
inactive: [2] 101 % of control | [3] 106 % of control | dose: 100.0 mg/kg/injection, schedule: Q01DX009 (ip), vehicle: saline with Tween-80 96 % of control | [4] 93 % of control

COC(=O)/C=C/c1ccc(OC)c(OC)c1
inactive: [6] 93 % of control | [8] 95 % of control | [9] 102 % of control

COc1cc2c(cc1OC)C(NNC(C)=O)CCCC2 (configuration not stated)
inactive: [10] 97 % of control | [11] 97 % of control | [12] 103 % of control

COc1cccc2c1C(=O)c1c(O)c3c(c(O)c1C2=O)C[C@@](O)(/C(C)=N\O)C[C@@H]3OC1CC(N)C(O)C(C)O1 (some centres not stated)
inactive: dose: 1.0 mg/kg/injection, schedule: Q04DX003 (ip), vehicle: water 106 % of control | dose: 2.0 mg/kg/injection, schedule: Q04DX003 (ip), vehicle: water 115 % of control | dose: 4.0 mg/kg/injection, schedule: Q04DX003 (ip), vehicle: water 113 % of control

CC12CCC3c4ccc(O)cc4CCC3C1CCC2O (configuration not stated)
inactive: dose: 50.0 mg/kg/injection, schedule: Q01DX001 (sc), vehicle: steriod suspending solution 105 % of control and 111 % of control | dose: 100.0 mg/kg/injection, schedule: Q01DX001 (sc), vehicle: steriod suspending solution 98 % of control and 115 % of control | dose: 200.0 mg/kg/injection, schedule: Q01DX001 (sc), vehicle: steriod suspending solution 98 % of control and 103 % of control | dose: 400.0 mg/kg/injection, schedule: Q01DX001 (sc), vehicle: steriod suspending solution 101 % of control and 109 % of control

COc1cc(C(=O)N(CCCl)N=O)cc(OC)c1OC
inactive: dose: 1.56 mg/kg/injection, schedule: Q01DX009 (ip), vehicle: saline with Tween-80 100 % of control | dose: 3.12 mg/kg/injection, schedule: Q01DX009 (ip), vehicle: saline with Tween-80 100 % of control and 107 % of control | dose: 6.25 mg/kg/injection, schedule: Q01DX009 (ip), vehicle: saline with Tween-80 100 % of control and 104 % of control | [1] 104 % of control | dose: 25.0 mg/kg/injection, schedule: Q04DX003 (ip), vehicle: saline with Tween-80 102 % of control | dose: 50.0 mg/kg/injection, schedule: Q04DX003 (ip), vehicle: saline with Tween-80 89 % of control | [4] 102 % of control and 86 % of control

O=C(O)c1ccc(N=Cc2ccccc2O)cc1.[Co]
inactive: dose: 100.0 mg/kg/injection, schedule: Q01DX001 (ip), vehicle: other 96 % of control | dose: 200.0 mg/kg/injection, schedule: Q01DX001 (ip), vehicle: other 112 % of control

CC(O)(CCl)C(=O)O (configuration not stated)
inactive: dose: 100.0 mg/kg/injection, schedule: Q04DX003 (ip), vehicle: saline 96 % of control | dose: 200.0 mg/kg/injection, schedule: Q04DX003 (ip), vehicle: saline 98 % of control | dose: 400.0 mg/kg/injection, schedule: Q04DX003 (ip), vehicle: saline 96 % of control

Cc1ccc(CNC(=O)Nc2ccccc2)c(C)c1
inactive: dose: 100.0 mg/kg/injection, schedule: Q01DX009 (ip), vehicle: other 103 % of control | dose: 200.0 mg/kg/injection, schedule: Q01DX009 (ip), vehicle: other 91 % of control | dose: 400.0 mg/kg/injection, schedule: Q01DX009 (ip), vehicle: other 101 % of control

CC[N+](C)(C)CCCOC(=O)C1C2CC3CC(C2)CC1C3 (configuration not stated)
inactive: dose: 25.0 mg/kg/injection, schedule: Q04DX002 (ip), vehicle: saline 88 % of control | dose: 50.0 mg/kg/injection, schedule: Q04DX002 (ip), vehicle: saline 98 % of control

CN(C)C1CCC(Nc2nc(Nc3cc(Cl)cc(Cl)c3)nc3ccccc23)CC1 (configuration not stated)
inactive: dose: 100.0 mg/kg/injection, schedule: Q01DX001 (ip), vehicle: saline with Tween-80 95 % of control

O=C(O)c1ccc(/C=N/Nc2nnc(N/N=C/c3ccc(C(=O)O)cc3)c3ccccc23)cc1
inactive: dose: 50.0 mg/kg/injection, schedule: Q01DX001 (ip), vehicle: carboxymethylcellulose (CMC) 113 % of control | dose: 100.0 mg/kg/injection, schedule: Q01DX001 (ip), vehicle: carboxymethylcellulose (CMC) 113 % of control | dose: 200.0 mg/kg/injection, schedule: Q01DX001 (ip), vehicle: carboxymethylcellulose (CMC) 107 % of control | dose: 400.0 mg/kg/injection, schedule: Q01DX001 (ip), vehicle: carboxymethylcellulose (CMC) 104 % of control

NC(CSS(=O)(=O)O)=NCCc1ccc(O)cc1
inactive: dose: 25.0 mg/kg/injection, schedule: Q04DX002 (ip), vehicle: Klucel (hydroxypropylcellulose) (HPC) 110 % of control | dose: 100.0 mg/kg/injection, schedule: Q04DX002 (ip), vehicle: Klucel (hydroxypropylcellulose) (HPC) 90 % of control and 91 % of control

CC(=O)OC1=CC2(OC(C)=O)CCC1C1C(=O)OC(=O)C12 (configuration not stated)
inactive: [10] 102 % of control | dose: 100.0 mg/kg/injection, schedule: Q04DX003 (ip), vehicle: acetone 93 % of control | [11] 91 % of control | dose: 200.0 mg/kg/injection, schedule: Q04DX003 (ip), vehicle: acetone 96 % of control | [12] 90 % of control

c1cc2c(c(NC3=NCCCS3)c1)CCCC2
inactive: [5] 102 % of control | [6] 97 % of control | [7] 96 % of control | [8] 95 % of control | [9] 90 % of control

Reference: PubChem BioAssay AID248 (DTP/NCI, 2004)
